{"source": "patent US20010041801A1", "about": "“Water soluble fullerenes with antiviral activity” (The Regents of the University of California, priority 1994, published 2001)", "target": "pepsin (Homo sapiens, UniProt P0DJD8)", "sequence (P0DJD8 63-388)": "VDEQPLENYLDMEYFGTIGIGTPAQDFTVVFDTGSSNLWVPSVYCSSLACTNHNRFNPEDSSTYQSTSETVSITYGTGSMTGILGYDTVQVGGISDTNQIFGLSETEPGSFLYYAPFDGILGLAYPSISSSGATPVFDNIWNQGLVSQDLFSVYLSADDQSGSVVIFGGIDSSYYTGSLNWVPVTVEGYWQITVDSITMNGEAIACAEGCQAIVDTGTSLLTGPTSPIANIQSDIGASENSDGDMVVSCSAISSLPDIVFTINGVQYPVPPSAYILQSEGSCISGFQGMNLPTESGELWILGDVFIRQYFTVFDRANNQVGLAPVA", "assay": "Pepsin inhibition assay", "assay_type": "biochemical", "conditions": "0.028 μM enzyme, 0.2 M sodium citrate pH 2.0, 37° C.; read-out: IC50 against pepsin", "excerpt": "Compound 2c also has antiprotease activity. […] The method used for the assay was similar to that described by Ido, et al., J. Biol. Chem., 266:24359-24366, 1991).", "data": [{"molecule": "O=C(O)CCC(=O)NCCc1ccc(C2(c3ccc(CCNC(=O)CCC(=O)O)cc3)C34c5c6c7c8c9c%10c(c%11c%12c3c3c5c5c%13c6c6c7c7c9c9c%14c%10c%10c%11c%11c%12c%12c3c3c5c5c%13c%13c6c6c7c9c7c9c%14c%10c%10c%11c%11c%12c3c3c5c5c%13c6c7c6c9c%10c%11c3c56)C824)cc1", "note": "[Compound 2c, bis(monosuccinimide) derivative of p,p′-bis(2-aminoethyl)diphenyl-C60]", "values": [{"measurement": "IC50", "result": 20, "unit": "µM"}]}]}
